Reference: patent US6737383B1, “Herbicidal oxadiazolidines” (priority 1999, dated 2004)

How the values were obtained:
black nightshade = test: Test E black nightshade; assay type: in vivo, Solanum nigra; details: Postemergence
Procedure, shortened: (§1)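 Greenhouse-grown plants are treated (postemergence: 1- to 4-leaf stage, sandy loam/potting mix 60:40), then evaluated visually versus untreated controls some 21 to 28 days later.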

chickweed [1] = test: Test E chickweed; assay type: in vivo, Stellaria media; details: Postemergence
Procedure, shortened: as §1

common poppy = test: Test E common poppy; assay type: in vivo, Papaver rhoeas; details: Postemergence
Procedure, shortened: as §1

field violet = test: Test E field violet; assay type: in vivo, Viola arvensis; details: Postemergence
Description: (§2) Compounds evaluated in this test were formulated in a non-phytotoxic solvent mixture which included a surfactant and applied to plants that were in the 1- to 4-leaf stage (postemergence application). A mixture of sandy loam soil and greenhouse potting mix in a 60:40 ratio was used for the postemergence test.
(§3) Plantings of these crops and weed species were adjusted to produce plants of appropriate size for the postemergence test. All plant species were grown using normal greenhouse practices. Crop and weed species include annual bluegrass (Poa annua), blackgrass (Alopecurus myosuroides), black nightshade (Solanum nigra), chickweed (Stellaria media), common poppy (Papaver rhoeas), deadnettle (Lamium amplexicaule), downy brome (Bromus tectorum), field violet (Viola arvensis), galium (Galium aparine), green foxtail (Setaria viridis), Italian ryegrass (Lolium multiflorum), jointed goatgrass (Aegilops cylindrica), kochia (Kochia scoparia), lambsquarters (Chenopodium album), littleseed canarygrass (Phalaris minor), rape (Brassica napus), redroot pigweed (Amaranthus retroflexus), Russian thistle (Salsola kali), scentless chamomile (Matricaria inodora), spring barley (Hordeum vulgare), sugar beet (Beta vulgaris), sunflower (Helianthus annuus), ivyleaf speedwell (Veronica hederaefolia), spring wheat (Triticum aestivum), winter wheat (Triticum aestivum), wild buckwheat (Polygonum convolvulus), wild mustard (Sinapis arvensis), wild oat (Avena fatua), windgrass (Apera spica-venti) and winter barley (Hordeum vulgare).
(§4) Treated plants and untreated controls were maintained in a greenhouse for approximately 21 to 28 days, after which all treated plants were compared to untreated controls and visually evaluated. […] A dash response (-) means no test result.

Italian ryegrass = test: Test E Italian ryegrass; assay type: in vivo, Lolium multiflorum; details: Postemergence
Procedure, shortened: as §1

jointed goatgrass = test: Test E jointed goatgrass; assay type: in vivo, Aegilops cylindrica; details: Postemergence
Description: as §2, §3, §4

kochia [2] = test: Test E kochia; assay type: in vivo, Kochia scoparia; details: Postemergence
Description: as §2, §3, §4

scentless chamomile = test: Test E scentless chamomile; assay type: in vivo, Matricaria inodora; details: Postemergence
Description: as §2, §3, §4

spring barley [3] = test: Test E spring barley; assay type: in vivo, Hordeum vulgare; details: Postemergence
Description: as §2, §3, §4

spring wheat [4] = test: Test E spring wheat; assay type: in vivo, Triticum aestivum; details: Postemergence
Description: as §2, §3, §4

wild mustard = test: Test E wild mustard; assay type: in vivo, Sinapis arvensis; details: Postemergence
Description: […] A mixture of sandy loam soil and greenhouse potting mix in a 60:40 ratio was used for the postemergence test.
as §3, §4

windgrass = test: Test E windgrass; assay type: in vivo, Apera spica-venti; details: Postemergence, Rate 62 g/ha; 0 to 100 scale
Description: as §2
Plantings of these crops and weed species were adjusted to produce plants of appropriate size for the postemergence test. All plant species were grown using normal greenhouse practices. […]
Treated plants and untreated controls were maintained in a greenhouse for approximately 21 to 28 days, after which all treated plants were compared to untreated controls and visually evaluated. […]

chickweed [5] = test: Test E chickweed; assay type: in vivo, Stellaria media; details: Preemergence
downy brome = test: Test E downy brome; assay type: in vivo, Bromus tectorum; details: Preemergence
kochia [6] = test: Test E kochia; assay type: in vivo, Kochia scoparia; details: Preemergence
littleseed canarygrass = test: Test E littleseed canarygrass; assay type: in vivo, Phalaris minor; details: Preemergence
Russian thistle = test: Test E Russian thistle; assay type: in vivo, Salsola kali; details: Preemergence
spring barley [7] = test: Test E spring barley; assay type: in vivo, Hordeum vulgare; details: Preemergence
sunflower = test: Test E sunflower; assay type: in vivo, Helianthus annuus; details: Preemergence
spring wheat [8] = test: Test E spring wheat; assay type: in vivo, Triticum aestivum; details: Preemergence
[9] = Rate 250 g/ha, 0 to 100 scale (0 no effect, 100 complete control)
[10] = Rate 62 g/ha, 0 to 100 scale, 0 no effect, 100 complete control
[11] = Rate 125 g/ha, 0 to 100 scale (0 no effect, 100 complete control)

With `CCn1c(=O)on(C(=O)N(c2ccc(Cl)cc2)C(C)C)c1=O` [Compound 108] the “Plant response rating, Blk nightshade” value (black nightshade; Rate 62 g/ha, 0 to 100 scale) was 20, the “Plant response rating, Blk nightshade” value (black nightshade; Rate 125 g/ha, 0 to 100 scale) was 30 and the “Plant response rating, Blk nightshade” value (black nightshade; [9]) was 50. The “Plant response rating, Chickweed” value (chickweed [1]; Rate 62 g/ha, 0 to 100 scale) was 10, the “Plant response rating, Chickweed” value (chickweed [1]; Rate 125 g/ha, 0 to 100 scale) was 0 and the “Plant response rating, Chickweed” value (chickweed [1]; [9]) was 0. The “Plant response rating, Common poppy” value (common poppy; Rate 62 g/ha, 0 to 100 scale) was 10, the “Plant response rating, Comnion poppy” value (common poppy; Rate 125 g/ha, 0 to 100 scale) was 0 and the “Plant response rating, Common poppy” value (common poppy; [9]) was 0. The “Plant response rating, Field violet” value (field violet; Rate 62 g/ha, 0 to 100 scale) was 0, the “Plant response rating, Field violet” value (field violet; Rate 125 g/ha, 0 to 100 scale) was 0 and the “Plant response rating, Field violet” value (field violet; [9]) was 20. For the same compound, the “Plant response rating, I. Ryegrass” value (Italian ryegrass; Rate 62 g/ha, 0 to 100 scale) was 20, the “Plant response rating, I. Ryegrass” value (Italian ryegrass; Rate 125 g/ha, 0 to 100 scale) was 5 and the “Plant response rating, I. Ryegrass” value (Italian ryegrass; [9]) was 40. The “Plant response rating, Jointed goatgra” value (jointed goatgrass; Rate 62 g/ha, 0 to 100 scale) was 10, the “Plant response rating, Jointed goatgra” value (jointed goatgrass; Rate 125 g/ha, 0 to 100 scale) was 10 and the “Plant response rating, Jointed goatgra” value (jointed goatgrass; [9]) was 10. For the same compound, the “Plant response rating, Kochia” value (kochia [2]; Rate 62 g/ha, 0 to 100 scale) was 20, the “Plant response rating, Kochia” value (kochia [2]; Rate 125 g/ha, 0 to 100 scale) was 40 and the “Plant response rating, Kochia” value (kochia [2]; [9]) was 30. The “Plant response rating, Scentless chamo” value (scentless chamomile; Rate 62 g/ha, 0 to 100 scale) was 10, the “Plant response rating, Scentless chamo” value (scentless chamomile; Rate 125 g/ha, 0 to 100 scale) was 0 and the “Plant response rating, Scentless chamo” value (scentless chamomile; [9]) was 10. The “Plant response rating, Spring Barley” value (spring barley [3]; Rate 62 g/ha, 0 to 100 scale) was 10, the “Plant response rating, Spring Barley” value (spring barley [3]; Rate 125 g/ha, 0 to 100 scale) was 20 and the “Plant response rating, Spring Barley” value (spring barley [3]; [9]) was 25. For the same compound, the “Plant response rating, Spring Wheat” value (spring wheat [4]; Rate 62 g/ha, 0 to 100 scale) was 10, the “Plant response rating, Spring Wheat” value (spring wheat [4]; Rate 125 g/ha, 0 to 100 scale) was 10 and the “Plant response rating, Spring Wheat” value (spring wheat [4]; [9]) was 20. For the same compound, the “Plant response rating, Wild mustard” value (wild mustard; Rate 62 g/ha, 0 to 100 scale) was 5, the “Plant response rating, Wild mustard” value (wild mustard; Rate 125 g/ha, 0 to 100 scale) was 10 and the “Plant response rating, Wild mustard” value (wild mustard; [9]) was 80. For the same compound, the “Plant response rating, Windgrass” value (windgrass) was 80, the “Plant response rating, Chickweed” value (chickweed [5]; [10]) was 30 and the “Plant response rating, Chickweed” value (chickweed [5]; [11]) was 40. For the same compound, the “Plant response rating, Chickweed” value (chickweed [5]; Rate 250 g/ha, 0 to 100 scale) was 30, the “Plant response rating, Downy brome” value (downy brome; [10]) was 30 and the “Plant response rating, Downy brome” value (downy brome; [11]) was 30. For the same compound, the “Plant response rating, Downy brome” value (downy brome; Rate 250 g/ha, 0 to 100 scale) was 70, the “Plant response rating, Kochia” value (kochia [6]; [10]) was 50 and the “Plant response rating, Kochia” value (kochia [6]; [11]) was 50. The “Plant response rating, Kochia” value (kochia [6]; Rate 250 g/ha, 0 to 100 scale) was 40, the “Plant response rating, LS canarygrass” value (littleseed canarygrass; [10]) was 60 and the “Plant response rating, LS canarygrass” value (littleseed canarygrass; [11]) was 50. For the same compound, the “Plant response rating, LS canarygrass” value (littleseed canarygrass; Rate 250 g/ha, 0 to 100 scale) was 70, the “Plant response rating, Russian thistle” value (Russian thistle; [10]) was 0 and the “Plant response rating, Russian thistle” value (Russian thistle; [11]) was 0. The “Plant response rating, Russian thistle” value (Russian thistle; Rate 250 g/ha, 0 to 100 scale) was 15, the “Plant response rating, Spring Barley” value (spring barley [7]; [10]) was 10 and the “Plant response rating, Spring Barley” value (spring barley [7]; [11]) was 10. The “Plant response rating, Spring Barley” value (spring barley [7]; Rate 250 g/ha, 0 to 100 scale) was 5, the “Plant response rating, Sunflower” value (sunflower; [10]) was 0 and the “Plant response rating, Sunflower” value (sunflower; [11]) was 0. For the same compound, the “Plant response rating, Sunflower” value (sunflower; Rate 250 g/ha, 0 to 100 scale) was 10, the “Plant response rating, Spring Wheat” value (spring wheat [8]; [10]) was 10 and the “Plant response rating, Spring Wheat” value (spring wheat [8]; [11]) was 20. For the same compound, the “Plant response rating, Spring Wheat” value (spring wheat [8]; Rate 250 g/ha, 0 to 100 scale) was 30.
